Experimental data as given in patent publication US20090098226A1, “COMPOSITION FOR COSMETIC OR PHARMACEUTICAL-DERMATOLOGICAL USE” (priority 2006, published 2009).

Legend:
[1] = system: COX2; assay: Test 3: COX2 expression after oxidative insult (previous test repeated, 3 hours and 24 hours); format: cell-based, human
Experimental: (§1) Tests on the capacity of the indicated preparations to prevent oxidative damage, induced in dermal tissue cells, were conducted on human fibroblasts which were isolated then cultivated in a suitable culture medium. Oxidative stress was induced by adding a mixture of 40 mM xanthine and 2 mM hypoxanthine to the culture medium, a mixture with known ability to induce formation of Reactive Oxygen Species (ROS), agents which cause cell damage up to necrosis. The preparations under examination could be added, or not, to the broth at the same time as the xanthine/hypoxanthine mixture. The contact time between the xanthine/hypoxanthine mixture and the preparations was 2 hours, at the end of which the cells were transplanted into a fresh culture medium, i.e. containing neither the stress-inducing mixture nor the substance, then allowed to quiesce for periods of 3 or 24 hours. At the end of the stated period, gene expression of the prostaglandin G/H synthase and cyclooxygenase2 (COX2) enzyme was detected which is indicative of the inflammatory state induced in cells by oxidative stress.

[2] = system: COX2; assay: Test 2: COX2 expression in human fibroblasts after xanthine/hypoxanthine oxidative stress; format: cell-based; details: 24 hours after oxidative stress, insulted human fibroblasts
Experimental: as §1
Expression of COX2 (normalized fluorescence units vs housekeeping gene 18s rRNA) 24 hours after oxidative stress, in “insulted” cells in the presence of curcumin, curcumin complexed with Zn and FDP used separately, and in the presence of the ternary system.

C[C@H]1[C@H](C)CC[C@]2(C)CC[C@]3(C)C(=CC[C@@H]4[C@@]5(C)CC[C@@H](O)[C@](C)(C(=O)O)[C@@H]5CC[C@]43C)[C@H]12 [boswellic acid]
COX2 expression after oxidative insult ([1]; 100 μM, 3 hours): 7.80 normalized fluorescence units vs housekeeping gene 18s rRNA | COX2 expression after oxidative insult ([1]; 100 μM, 24 hours): 8.00 normalized fluorescence units vs housekeeping gene 18s rRNA | COX2 expression after oxidative insult ([1]; 300 μM, 3 hours): 8.10 normalized fluorescence units vs housekeeping gene 18s rRNA | COX2 expression after oxidative insult ([1]; 300 μM, 24 hours): 8.90 normalized fluorescence units vs housekeeping gene 18s rRNA

COc1cc(/C=C/C(=O)CC(=O)/C=C/c2ccc(O)c(OC)c2)ccc1O [curcumin, Curcumin]
Expression of COX2 ([2]; 3 μM): 5.00 normalized fluorescence units vs housekeeping gene 18s rRNA | Expression of COX2 ([2]; 6 μM): 4.90 normalized fluorescence units vs housekeeping gene 18s rRNA | COX2 expression after oxidative insult ([1]; 3 μM, 3 hours): 5.76 normalized fluorescence units vs housekeeping gene 18s rRNA | COX2 expression after oxidative insult ([1]; 3 μM, 24 hours): 5.00 normalized fluorescence units vs housekeeping gene 18s rRNA | COX2 expression after oxidative insult ([1]; 6 μM, 3 hours): 5.45 normalized fluorescence units vs housekeeping gene 18s rRNA | COX2 expression after oxidative insult ([1]; 6 μM, 24 hours): 4.90 normalized fluorescence units vs housekeeping gene 18s rRNA | COX2 expression after oxidative insult ([1]; 9 μM, 3 hours): 5.10 normalized fluorescence units vs housekeeping gene 18s rRNA | COX2 expression after oxidative insult ([1]; 9 μM, 24 hours): 4.78 normalized fluorescence units vs housekeeping gene 18s rRNA

O=P(O)(O)OC[C@H]1O[C@@](O)(COP(=O)(O)O)[C@@H](O)[C@@H]1O [FDP, Fructose 1-6 diphosphate]
Expression of COX2 ([2]; 5 mM): 7.14 normalized fluorescence units vs housekeeping gene 18s rRNA | COX2 expression after oxidative insult ([1]; 5 mM, 3 hours): 7.87 normalized fluorescence units vs housekeeping gene 18s rRNA | COX2 expression after oxidative insult ([1]; 5 mM, 24 hours): 7.14 normalized fluorescence units vs housekeeping gene 18s rRNA | COX2 expression after oxidative insult ([1]; 10 mM, 3 hours): 6.90 normalized fluorescence units vs housekeeping gene 18s rRNA | COX2 expression after oxidative insult ([1]; 10 mM, 24 hours): 6.45 normalized fluorescence units vs housekeeping gene 18s rRNA
